SMILES strings stand for the structures.

The test system of the data set is disseminated L1210 murine leukemia. Put plainly: Antileukemic activity against disseminated L1210 murine leukemia. The settings on record: PNU 166196 0.52 mg/kg; for ILS % (increase in life span) / Tox (number of toxic deaths/number of mice): L1210 cells 10^5/mouse CD2F1 IV day 0, treatment iv day +1, doxorubicin 10 mg/kg (given 2 h after PNU 166196), alone or combined at the same doses. The text has this:
For these experiments, PNU 166196 and doxorubicin were solubilized in water for injection.

For `COc1cccc2c1C(=O)c1c(O)c3c(c(O)c1C2=O)C[C@@](O)(C(=O)CO)C[C@@H]3O[C@H]1C[C@H](N)[C@H](O)[C@H](C)O1` [Doxorubicin, doxorubicin, reference compound], the “ILS % (increase in life span)” value stood at 58% and the “Tox (number of toxic deaths/number of mice)” value is given as 0/10.
As for `C=C(Br)C(=O)Nc1cc(C(=O)Nc2cc(C(=O)Nc3cc(C(=O)Nc4cc(C(=O)NCCNC(=N)N)n(C)c4)n(C)c3)n(C)c2)n(C)c1.Cl` [PNU 166196, N-(5-{[(5-{[(5-{[(2-{[amino(imino)methyl]amino}ethyl)amino]carbonyl}-1-methyl-1H-pyrrol-3-yl)amino]carbonyl}-1-methyl-1H-pyrrol-3-yl)amino]carbonyl}-1-methyl-1H-pyrrol-3-yl)-4-[(2-bromoacryloyl)amino]-1-methyl-1H-pyrrole-2-carboxamide hydrochloride], the “ILS % (increase in life span)” value is on record as 33% and the “Tox (number of toxic deaths/number of mice)” value is on record as 0/10. Under “single agents, iv day +1, doxorubicin 10 mg/kg”, the “toxicity (in words)” value is given as “without toxicity”.

For the origin of these results see US20030162722A1, “Pharmaceutical compositions comprising acryloyl distamycin derivatives and topoisomerase I and II inhibitors” (priority 2000, published 2003).
